Results as given in patent publication US20110207723A1, “NOVEL FUSED AMINODIHYDROTHIAZINE DERIVATIVE” (EISAI R&D MANAGEMENT CO., LTD., priority 2008, published 2011).

System: Aβ42 production
Assay: Quantification of Aβ peptide in culture of neurons from rat fetus brain (Aβ42 ELISA)
Type: cell-based
Conditions: Neuron, 72 h, rat primary neuronal culture (embryonic day 18 Wistar rat cerebral cortex), medium collected three days after addition of compound, read-out: Aβ42 production reducing effect IC50
Experimental: Quantification of Aβ Peptide in Culture of Neurons from Rat Fetus Brain
Primary neuronal cultures were prepared from the cerebral cortex of embryonic day 18 Wistar rats (Charles River Japan, Yokohama, Japan). Specifically, the embryos were aseptically removed from pregnant rats under ether anesthesia. The brain was isolated from the embryo and immersed in an ice-cold L-15 medium (such as Invitrogen Corp. Cat #11415-064, Carlsbad, Calif., USA, or SIGMA L1518). The cerebral cortex was collected from the isolated brain under a stereoscopic microscope. The cerebral cortex fragments collected were enzymatically treated in an enzyme solution containing 0.25% trypsin (Invitrogen Corp. Cat #15050-065, Carlsbad, Calif., USA) and 0.01% DNase (Sigma D5025, St. Louis, Mo., USA) at 37° C. for 30 minutes to disperse the cells. Here, the enzymatic reaction was stopped by adding inactivated horse serum to the solution. The enzymatically treated solution was centrifuged at 1,500 rpm for five minutes to remove the supernatant. 5 to 10 ml of a medium was added to the resulting cell mass. Neurobasal medium (Invitrogen Corp. Cat #21103-049, Carlsbad, Calif., USA) supplemented with 2% B27 supplement (Invitrogen Corp. Cat #17504-044, Carlsbad, Calif., USA), 25 μM 2-mercaptoethanol (2-ME, WAKO Cat #139-06861, Osaka, Japan), 0.5 mM L-glutamine (Invitrogen Corp. Cat #25030-081, Carlsbad, Calif., USA), and Antibiotics-Antimycotics (Invitrogen Corp. Cat #15240-062, Carlsbad, Calif., USA) was used as the medium (Neurobasal/B27/2-ME). However, the above Neurobasal medium not supplemented with 2-ME (Neurobasal/B27) was used for the assay. The cells were redispersed by mild pipetting of the cell mass to which the medium was added. The cell dispersion was filtered through a 40-μm nylon mesh (Cell Strainer, Cat #35-2340, Becton Dickinson Labware, Franklin Lakes, N.J., USA) to remove the remaining cell mass, and thus a neuronal cell suspension was obtained. The neuronal cell suspension was diluted with the medium and then plated in a volume of 100 μl/well at an initial cell density of 5×10^5 cells/cm^2 in a 96-well polystyrene culture plate pre-coated with poly-L or D-lysine (Falcon Cat #35-3075, Becton Dickinson Labware, Franklin Lakes, N.J., USA coated with poly-L-lysine using the method shown below, or BIOCOAT™ cell environments Poly-D-lysine cell ware 96-well plate, Cat #35-6461, Becton Dickinson Labware, Franklin Lakes, N.J., USA). Poly-L-lysine coating was carried out as follows. 100 μg/ml of a poly-L-lysine (SIGMA P2636, St. Louis, Mo., USA) solution was aseptically prepared with a 0.15 M borate buffer (pH 8.5). […] of the solution was added to the 96-well polystyrene culture plate and incubated at room temperature for one or more hours or at 4° C. overnight or longer. Thereafter, the coated 96-well polystyrene culture plate was washed with sterile water four or more times, and then dried or rinsed with, for example, sterile PBS or medium, and used for cell plating. The plated cells were cultured in the culture plate at 37° C. in 5% CO2-95% air for one day. Then, the total amount of the medium was replaced with a fresh Neurobasal/B27/2-ME medium, and then the cells were cultured for further three days.
The drug was added to the culture plate on Day 4 of culture as follows. The total amount of the medium was removed from the wells, and 180 μl/well of Neurobasal medium not containing 2-ME and containing 2% B-27 (Neurobasal/B27) was added thereto. A solution of the test compound in dimethyl sulfoxide (hereinafter abbreviated as DMSO) was diluted with Neurobasal/B27 to a concentration 10-fold higher than the final concentration. 20 μl/well of the dilution was added to and sufficiently mixed with the medium. The final DMSO concentration was 1% or less. Only DMSO was added to the control group.
The cells were cultured for three days after addition of the compound, and the total amount of the medium was collected. […]

NC1=N[C@@]2(c3cc(NC(=O)c4ccc(Cl)cn4)ccc3F)COCC[C@H]2CS1 (single isomer, unassigned) [Example 49, N-[3-((4aR*,8aS*)-2-amino-4,4a,5,6-tetrahydro-7-oxa-3-thia-1-azanaphthalen-8a-yl)-4-fluorophenyl]-5-chloropyridine-2-carboxamide] and NC1=N[C@@]2(c3cc(NC(=O)c4ccc(Br)cn4)ccc3F)COCC[C@H]2CS1 (single isomer, unassigned) [Example 50, N-[3-((4aR*,8aS*)-2-amino-4,4a,5,6-tetrahydro-7-oxa-3-thia-1-azanaphthalen-8a-yl)-4-fluorophenyl]-5-bromopyridine-2-carboxamide] are the same in IC50: 2 nM for the first, 2 nM for the second.

Going from NC1=N[C@@]2(c3cc(NC(=O)c4ncc(F)cc4F)ccc3F)COCC[C@H]2CS1 (single isomer, unassigned) [Example 51, N-[3-((4aR*,8aS*)-2-amino-4,4a,5,6-tetrahydro-7-oxa-3-thia-1-azanaphthalen-8a-yl)-4-fluorophenyl]-3,5-difluoropyridine-2-carboxamide] to NC1=N[C@@]2(c3cc(NC(=O)c4ncc(Cl)cc4Cl)ccc3F)COCC[C@H]2CS1 (single isomer, unassigned) [Example 52, N-[3-((4aR*,8aS*)-2-amino-4,4a,5,6-tetrahydro-7-oxa-3-thia-1-azanaphthalen-8a-yl)-4-fluorophenyl]-3,5-dichloropyridine-2-carboxamide], the IC50 falls from 6 nM to 2 nM (3-fold).

Going from NC1=N[C@@]2(c3cc(NC(=O)c4ccc(F)cn4)ccc3F)COCC[C@H]2CS1 (single isomer, unassigned) [Example 53, N-[3-((4aR*,8aS*)-2-amino-4,4a,5,6-tetrahydro-7-oxa-3-thia-1-azanaphthalen-8a-yl)-4-fluorophenyl]-5-fluoropyridine-2-carboxamide] to NC1=N[C@@]2(c3cc(NC(=O)c4ccc(C(F)F)cn4)ccc3F)COCC[C@H]2CS1 (single isomer, unassigned) [Example 56, N-[3-((4aR*,8aS*)-2-amino-4,4a,5,6-tetrahydro-7-oxa-3-thia-1-azanaphthalen-8a-yl)-4-fluorophenyl]-5-difluoromethylpyridine-2-carboxamide], the IC50 falls from 5.6 nM to 3 nM (1.9-fold).

NC1=N[C@@]2(c3cc(NC(=O)c4ncc(Br)cc4Br)ccc3F)COCC[C@H]2CS1 (single isomer, unassigned) [Example 54, N-[3-((4aR*,8aS*)-2-amino-4,4a,5,6-tetrahydro-7-oxa-3-thia-1-azanaphthalen-8a-yl)-4-fluorophenyl]-3,5-dibromopyridine-2-carboxamide] and NC1=N[C@@]2(c3cc(NC(=O)c4cnc(C(F)F)cn4)ccc3F)COCC[C@H]2CS1 (single isomer, unassigned) [Example 57, N-[3-((4aR*,8aS*)-2-amino-4,4a,5,6-tetrahydro-7-oxa-3-thia-1-azanaphthalen-8a-yl)-4-fluorophenyl]-5-difluoromethylpyrazine-2-carboxamide] are the same in IC50: 2 nM for the first, 2 nM for the second.

NC1=N[C@@]2(c3cc(NC(=O)c4ccc(C(F)(F)F)cn4)ccc3F)COCC[C@H]2CS1 (single isomer, unassigned) [Example 55, N-[3-((4aR*,8aS*)-2-amino-4,4a,5,6-tetrahydro-7-oxa-3-thia-1-azanaphthalen-8a-yl)-4-fluorophenyl]-5-trifluoromethylpyridine-2-carboxamide] and NC1=N[C@@]2(c3cc(NC(=O)c4ccc(C(F)(F)F)cn4)ccc3F)COC[C@@H](F)[C@H]2CS1 [Example 19, N-[3-((4aS,5S,8aS)-2-amino-5-fluoro-4,4a,5,6-tetrahydro-7-oxa-3-thia-1-azanaphthalen-8a-yl)-4-fluorophenyl]-5-trifluoromethylpyridine-2-carboxamide] are within 1.5-fold of each other in IC50: 1.4 nM for the first, 2 nM for the second.

Going from NC1=N[C@@]2(c3cc(NC(=O)c4ccc(OC(F)F)cn4)ccc3F)COCC[C@H]2CS1 (single isomer, unassigned) [Example 58, N-[3-((4aR*,8aS*)-2-amino-4,4a,5,6-tetrahydro-7-oxa-3-thia-1-azanaphthalen-8a-yl)-4-fluorophenyl]-5-difluoromethoxypyridine-2-carboxamide] to NC1=N[C@@]2(c3cc(NC(=O)c4ccc(OC(F)F)cn4)ccc3F)COC[C@@H](F)[C@H]2CS1 [Example 20, N-[3-((4aS,5S,8aS)-2-amino-5-fluoro-4,4a,5,6-tetrahydro-7-oxa-3-thia-1-azanaphthalen-8a-yl)-4-fluorophenyl]-5-difluoromethoxypyridine-2-carboxamide], the IC50 rises from 4 nM to 9 nM (2.2-fold). The first is the more potent here.

First: N#Cc1ccc(C(=O)Nc2csc(C34COCCC3CSC(N)=N4)c2)nc1 (stereo in doubt) [Example 64, N-[5-((4aR*,8aS*)-2-amino-4,4a,5,6-tetrahydro-7-oxa-3-thia-1-azanaphthalen-8a-yl)thiophen-3-yl]-5-cyanopyridine-2-carboxamide]
Second: N#Cc1ccc(C(=O)Nc2ccc(F)c([C@]34COC[C@@H](F)[C@H]3CSC(N)=N4)c2)nc1 [Example 16, N-[3-((4aS,5S,8aS)-2-amino-5-fluoro-4,4a,5,6-tetrahydro-7-oxa-3-thia-1-azanaphthalen-8a-yl)-4-fluorophenyl]-5-cyanopyridine-2-carboxamide]
The IC50 of the first is 13-fold higher: 14 nM for the first, 1.1 nM for the second.

NC1=N[C@@]2(c3cc(NC(=O)c4cnc(C(F)F)cn4)ccc3F)COC[C@@H](F)[C@H]2CS1 [Example 17, N-[3-((4aS,5S,8aS)-2-amino-5-fluoro-4,4a,5,6-tetrahydro-7-oxa-3-thia-1-azanaphthalen-8a-yl)-4-fluorophenyl]-5-difluoromethylpyrazine-2-carboxamide] and NC1=N[C@@]2(c3cc(NC(=O)c4cnc(OC(F)F)cn4)ccc3F)COC[C@@H](F)[C@H]2CS1 [Example 22, N-[3-((4aS,5S,8aS)-2-amino-5-fluoro-4,4a,5,6-tetrahydro-7-oxa-3-thia-1-azanaphthalen-8a-yl)-4-fluorophenyl]-5-difluoromethoxypyrazine-2-carboxamide] are the same in IC50: 4 nM for the first, 4 nM for the second.

Going from NC1=N[C@@]2(c3cc(NC(=O)c4ccc(Cl)cn4)ccc3F)COC[C@@H](F)[C@H]2CS1 [Example 18, N-[3-((4aS,5S,8aS)-2-amino-5-fluoro-4,4a,5,6-tetrahydro-7-oxa-3-thia-1-azanaphthalen-8a-yl)-4-fluorophenyl]-5-chloropyridine-2-carboxamide] to NC1=N[C@@]2(c3cc(NC(=O)c4ccc(Cl)cn4)ccc3F)CO[C@@H](CO)C[C@H]2CS1 [Example 33, N-[3-((4aR,6R,8aS)-2-amino-6-hydroxymethyl-4,4a,5,6-tetrahydro-7-oxa-3-thia-1-azanaphthalen-8a-yl)-4-fluorophenyl]-5-chloropyridine-2-carboxamide], the IC50 falls from 7 nM to 1.1 nM (6.4-fold). The second is the more potent here.

Compared with N#Cc1ccc(C(=O)Nc2ccc(F)c([C@]34CO[C@@H](CO)C[C@H]3CSC(N)=N4)c2)nc1 [Example 34, N-[3-((4aR,6R,8aS)-2-amino-6-hydroxymethyl-4,4a,5,6-tetrahydro-7-oxa-3-thia-1-azanaphthalen-8a-yl)-4-fluorophenyl]-5-cyanopyridine-2-carboxamide], N#Cc1ccc(C(=O)Nc2ccc(F)c([C@]34CO[C@@H](CF)C[C@H]3CSC(N)=N4)c2)nc1 [Example 44, N-[3-((4aR,6R,8aS)-2-amino-6-fluoromethyl-4,4a,5,6-tetrahydro-7-oxa-3-thia-1-azanaphthalen-8a-yl)-4-fluorophenyl]-5-cyanopyridine-2-carboxamide] is 2.9-fold lower in IC50: 2 nM for the first, 0.7 nM for the second. The second is the more potent here.
